System: PTEN-P2/GFP prostate cancer cells
Assay: Effect of 1,4-naphthoquinone analogs on PTEN-P2/GFP cell proliferation (WST-1 cell viability, 24 h)
Assay type: cell-based
Details: Mus musculus, WST-1, medium with 10% FBS and DHT, read-out: PTEN-P2/GFP cell proliferation, percent of control
Description: Cells are grown in phenol red-free DMEM medium containing 10% FBS, 2 mM L-glutamine, 100 U/ml penicillin/100 μg/ml streptomycin, insulin-selenium-transferrin (5 μg/ml insulin), and DHT 10^−8M final. Androgen withdrawal is achieved by not adding DHT to the medium. Cells are maintained in a humidified incubator at 37° C. and 5% CO2. G418 (100 μg/ml) is added to maintain stable expression of H2B-GFP.
100 microliters of PTEN-P2/GFP prostate cancer cells were plated at a density of 8000 cells/well in 96-well plates (triplicates) in growing medium containing 10% Fetal Bovine Serum and DHT. The next day, increasing concentrations of a 1,4-naphthoquinone analog (diluted from 10 mM DMSO stock solutions) were added. DMSO used as solvent for all analogs, was kept constant through the 96-well plates. The control consisted of DMSO alone. The cells were subsequently incubated for 24 hours at 37° C. and 5% CO2 in normal cell growth conditions. Cell viability was assessed by adding 9 μL/well of WST-1 reagent (Clontech), which measured mitochondrial activity of live cells. […] The incubation time was 3 hours at 37° C. Optical density of the cell samples was measured at 460 nm, by using plate reader Spectra Max 250 (Molecular Devices). The drug was determined to be cytotoxic when OD values show an inverse correlation with analog concentrations. The results are shown in TABLES 3.1-3.4, FIGS. 2A-2E, and FIGS. 3A-3D.

## O=C1C=C(Oc2cc(F)cc(F)c2)C(=O)c2ccccc21 [Analog F17, 2-(3,5-difluorophenoxy)naphthalene-1,4-dione]
  activity at 1.2 µM: 97%
  activity at 2.5 µM: 91.8%
  activity at 5 µM: 88.7%
  activity at 7.5 µM: 78.2%
  activity at 10 µM: 71.5%
  activity at 15 µM: 1.07%
  activity at 20 µM: 2.53%

## O=C(NCCCl)Oc1ccc(OC2=C(Oc3ccc(OC(=O)NCCCl)cc3)C(=O)c3ccccc3C2=O)cc1 [Analog F34, 2,3-bis(4-((2-chloroethyl)carbamoyloxy)phenoxy)-1,4-naphthoquinone]
  activity at 2 µM: 74.5%
  activity at 3 µM: 49.6%
  activity at 4 µM: 35.8%
  activity at 5 µM: 26%
  activity at 6 µM: 19.3%
  activity at 7 µM: 17.2%
  activity at 10 µM: 14.2%
  activity at 15 µM: 14.2%
  activity at 25 µM: 14.5%

## CC(=O)NC1=C(Oc2ccc(OC3=C(NC(C)=O)C(=O)c4ccccc4C3=O)cc2)C(=O)c2ccccc2C1=O [Analog F44, N,N′-((1,4-phenylenebis(oxy))bis(1,4-dioxo-1,4-dihydronaphthalene-3,2-diyl))diacetamide]
  activity at 2 µM: 106%
  activity at 3 µM: 102%
  activity at 4 µM: 69%
  activity at 5 µM: 58.6%
  activity at 6 µM: 50.5%
  activity at 7 µM: 45.4%
  activity at 10 µM: 38.7%
  activity at 15 µM: 20.9%
  activity at 25 µM: 17.1%

## O=C1C=C(Oc2ccc(O)cc2)C(=O)c2ccccc21 [Analog F10, 2-(4-hydroxyphenoxy)-1,4-naphthoquinone]
  activity at 2 µM: 98.6%
  activity at 3 µM: 95.4%
  activity at 4 µM: 91.2%
  activity at 5 µM: 82.8%
  activity at 6 µM: 67.1%
  activity at 7 µM: 53.6%
  activity at 10 µM: 25.2%
  activity at 15 µM: 16.7%
  activity at 25 µM: 17.6%

## O=C1C(Oc2ccc(O)cc2)=C(Oc2ccc(O)cc2)C(=O)c2ccccc21 [Analog F24, 2,3-bis(4-hydroxyphenoxy)-1,4-naphthoquinone]
  activity at 1.2 µM: 111%
  activity at 2.5 µM: 87.1%
  activity at 5 µM: 57.6%
  activity at 7.5 µM: 30.9%
  activity at 10 µM: 8.07%
  activity at 15 µM: 6.73%
  activity at 20 µM: 3.73%

## O=C1C=C(Oc2ccc(Cl)cc2)C(=O)c2ccccc21 [Analog F14, 2-(4-chlorophenoxy)naphthalene-1,4-dione]
  activity at 1.2 µM: 100%
  activity at 2.5 µM: 92.3%
  activity at 5 µM: 86.2%
  activity at 7.5 µM: 71%
  activity at 10 µM: 19.2%
  activity at 15 µM: 1.27%
  activity at 20 µM: 2.3%

## CCOC1=CC(=O)c2ccccc2C1=O [Analog F53, 2-ethoxy-1,4-naphthoquinone]
1 μM
  activity at 1 µM: 94%
  activity at 2 µM: 91.8%
  activity at 3 µM: 89.9%
  activity at 4 µM: 93.2%
  activity at 5 µM: 93.7%
  activity at 6 µM: 92.5%
  activity at 7 µM: 93.4%
  activity at 10 µM: 94.1%
  activity at 25 µM: 28.6%
50 μM
  activity at 50 µM: 12.9%

## Cc1cccc(OC2=CC(=O)c3ccccc3C2=O)c1 [Analog F08, 2-(3-methylphenoxy)-1,4-naphthoquinone]
  activity at 2 µM: 102%
  activity at 3 µM: 101%
  activity at 4 µM: 99.4%
  activity at 5 µM: 92.2%
  activity at 6 µM: 83.9%
  activity at 7 µM: 68.8%
  activity at 10 µM: 30.8%
  activity at 15 µM: 12.8%
  activity at 25 µM: 9.66%

## COc1ccc(OC2=C(NC(C)=O)C(=O)c3ccccc3C2=O)cc1 [Analog F41, N-(3-(4-methoxyphenoxy)-1,4-dioxo-1,4-dihydronaphthalen-2-yl)acetamide]
  activity at 2 µM: 95.1%
  activity at 3 µM: 89.8%
  activity at 4 µM: 84.5%
  activity at 5 µM: 75%
  activity at 6 µM: 69.6%
  activity at 7 µM: 63.9%
  activity at 10 µM: 36.9%
  activity at 15 µM: 13.5%
  activity at 25 µM: 12.6%

## CC(=O)NC1=C(Oc2ccccc2)C(=O)c2ccccc2C1=O [Analog F38, N-(1,4-dioxo-3-phenoxy-1,4-dihydronaphthalen-2-yl)acetamide]
  activity at 2 µM: 95.8%
  activity at 3 µM: 87%
  activity at 4 µM: 71.7%
  activity at 5 µM: 54%
  activity at 6 µM: 41%
  activity at 7 µM: 30.7%
  activity at 10 µM: 16.6%
  activity at 15 µM: 14.7%
  activity at 25 µM: 14.3%

## O=C1C=C(Oc2ccc3ccccc3c2)C(=O)c2ccccc21 [Analog F09, 2-(naphthalene-2-yloxy)-1,4-naphthoquinone]
  activity at 1.2 µM: 117%
  activity at 2.5 µM: 114%
  activity at 5 µM: 106%
  activity at 7.5 µM: 70%
  activity at 10 µM: 28.7%
  activity at 15 µM: 1.97%
  activity at 20 µM: 3.09%

## CC(=O)NC1=C(Oc2ccc(NC(C)=O)cc2)C(=O)c2ccccc2C1=O [Analog F40, N-(4-((3-acetamido-1,4-dioxo-1,4-dihydronaphthalen-2-yl)oxy)phenyl)acetamide]
  activity at 2 µM: 97%
  activity at 3 µM: 98.8%
  activity at 4 µM: 89.2%
  activity at 5 µM: 85.2%
  activity at 6 µM: 73.2%
  activity at 7 µM: 67.3%
  activity at 10 µM: 56.2%
  activity at 15 µM: 46.1%
  activity at 25 µM: 44.6%

## O=C1C(Oc2c(F)cc(F)cc2F)=C(Oc2c(F)cc(F)cc2F)C(=O)c2ccccc21 [Analog F22, 2,3-bis(2,4,6-trifluorophenoxy)naphthalene-1,4-dione]
  activity at 1.2 µM: 91.2%
  activity at 2.5 µM: 103%
  activity at 5 µM: 105%
  activity at 7.5 µM: 107%
  activity at 10 µM: 104%
  activity at 15 µM: 105%
  activity at 20 µM: 101%

## CC(=O)NC1=C(Oc2ccc(Cl)cc2)C(=O)c2ccccc2C1=O [Analog F39, N-(3-(4-chlorophenoxy)-1,4-dioxo-1,4-dihydronaphthalen-2-yl)acetamide]
  activity at 2 µM: 102%
  activity at 3 µM: 82.2%
  activity at 4 µM: 70.6%
  activity at 5 µM: 57.5%
  activity at 6 µM: 41.5%
  activity at 7 µM: 29.4%
  activity at 10 µM: 14.3%
  activity at 15 µM: 12%
  activity at 25 µM: 12.7%

## O=C1C(Oc2ccccc2)=C(Oc2ccccc2)C(=O)c2ccccc21 [Analog F21, 2,3-diphenoxy-1,4-naphthoquinone]
  activity at 2 µM: 102%
  activity at 3 µM: 92.9%
  activity at 4 µM: 92.9%
  activity at 5 µM: 92.9%
  activity at 6 µM: 61.8%
  activity at 7 µM: 54.4%
  activity at 10 µM: 26.1%
  activity at 15 µM: 16.2%
  activity at 25 µM: 16.3%

## CC(=O)NC1=C(Oc2cc(F)cc(F)c2)C(=O)c2ccccc2C1=O [Analog F43, N-(3-(3,5-difluorophenoxy)-1,4-dioxo-1,4-dihydronaphthalen-2-yl)acetamide]
  activity at 2 µM: 94.6%
  activity at 3 µM: 88.7%
  activity at 4 µM: 78.3%
  activity at 5 µM: 68.4%
  activity at 6 µM: 55.3%
  activity at 7 µM: 45.2%
  activity at 10 µM: 32.9%
  activity at 15 µM: 24.7%
  activity at 25 µM: 24.1%

## Cc1cc(OC2=CC(=O)c3ccccc3C2=O)ccc1Cl [Analog F15, 2-(4-chloro-3-methylphenoxy)naphthalene-1,4-dione]
  activity at 1.2 µM: 95.6%
  activity at 2.5 µM: 89%
  activity at 5 µM: 97.1%
  activity at 7.5 µM: 55.5%
  activity at 10 µM: 4.3%
  activity at 15 µM: 1.67%
  activity at 20 µM: 2.4%

Source: patent publication US10577315B2, “Compositions and methods for treatment of prostate carcinoma” (Pellficure Pharmaceuticals, Inc., priority 2014, dated 2020)
